Measurements: US12268674B2, “Mi-2β inhibitor as an immunotherapy agent” (BioVentures, LLC, priority 2021, dated 2025)

Experiments:
Assay in all cases: ATPase profile (ATP acyl phosphate probe)
Type in all cases: binding
SMC1A = target: T1, SMC1A (Homo sapiens, UniProt Q14683); settings: SEQ ID NO: 193, ATP BS
T1 construct: to get the native cell lysate; endogenous in cells; host or cells: A375 cell lysate

CLPB = target: T2, CLPB (Homo sapiens, UniProt Q9H078); settings: SEQ ID NO: 58, ATP BS
T2 construct: endogenous in cells; host or cells: A375 cell lysate

HSPA1A = target: T3, HSPA1A (Homo sapiens, UniProt P0DMV8)
T3 construct: to get the native cell lysate; endogenous in cells; host or cells: A375
T3 sequence (P0DMV8 whole entry): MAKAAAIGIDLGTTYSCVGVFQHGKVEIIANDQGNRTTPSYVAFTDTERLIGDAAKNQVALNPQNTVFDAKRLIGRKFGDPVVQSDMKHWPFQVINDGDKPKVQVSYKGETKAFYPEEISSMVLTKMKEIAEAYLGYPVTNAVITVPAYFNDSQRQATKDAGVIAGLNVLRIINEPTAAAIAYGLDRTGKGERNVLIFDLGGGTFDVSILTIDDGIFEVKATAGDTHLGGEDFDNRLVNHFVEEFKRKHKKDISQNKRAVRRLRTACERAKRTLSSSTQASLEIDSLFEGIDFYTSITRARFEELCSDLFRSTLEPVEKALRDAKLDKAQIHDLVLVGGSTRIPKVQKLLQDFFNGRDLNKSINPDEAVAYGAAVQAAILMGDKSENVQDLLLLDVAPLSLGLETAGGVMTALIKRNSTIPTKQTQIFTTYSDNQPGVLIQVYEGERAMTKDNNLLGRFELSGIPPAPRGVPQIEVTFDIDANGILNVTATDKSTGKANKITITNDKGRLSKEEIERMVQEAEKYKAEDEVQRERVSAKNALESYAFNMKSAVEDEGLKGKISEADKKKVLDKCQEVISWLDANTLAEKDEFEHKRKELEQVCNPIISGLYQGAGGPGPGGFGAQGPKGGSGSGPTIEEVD

TRMU = target: T4, TRMU (Homo sapiens, UniProt O75648)
T4 construct: to get the native cell lysate; endogenous in cells; host or cells: A375 cell lysate
T4 sequence (O75648 whole entry): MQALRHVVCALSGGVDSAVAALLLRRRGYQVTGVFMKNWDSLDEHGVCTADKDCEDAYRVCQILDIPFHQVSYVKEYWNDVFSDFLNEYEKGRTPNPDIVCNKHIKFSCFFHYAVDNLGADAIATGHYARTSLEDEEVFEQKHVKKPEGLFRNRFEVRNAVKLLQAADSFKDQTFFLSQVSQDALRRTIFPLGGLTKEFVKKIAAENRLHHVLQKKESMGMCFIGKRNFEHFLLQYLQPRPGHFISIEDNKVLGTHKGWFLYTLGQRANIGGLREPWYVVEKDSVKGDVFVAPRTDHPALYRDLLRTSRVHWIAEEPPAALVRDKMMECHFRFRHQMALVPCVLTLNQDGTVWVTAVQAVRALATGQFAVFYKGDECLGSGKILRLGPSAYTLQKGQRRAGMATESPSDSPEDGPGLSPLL

ME2 = target: T5, ME2 (Homo sapiens, UniProt P23368)
T5 construct: to get the native cell lysate; endogenous in cells; host or cells: A375
T5 sequence (P23368 19-584): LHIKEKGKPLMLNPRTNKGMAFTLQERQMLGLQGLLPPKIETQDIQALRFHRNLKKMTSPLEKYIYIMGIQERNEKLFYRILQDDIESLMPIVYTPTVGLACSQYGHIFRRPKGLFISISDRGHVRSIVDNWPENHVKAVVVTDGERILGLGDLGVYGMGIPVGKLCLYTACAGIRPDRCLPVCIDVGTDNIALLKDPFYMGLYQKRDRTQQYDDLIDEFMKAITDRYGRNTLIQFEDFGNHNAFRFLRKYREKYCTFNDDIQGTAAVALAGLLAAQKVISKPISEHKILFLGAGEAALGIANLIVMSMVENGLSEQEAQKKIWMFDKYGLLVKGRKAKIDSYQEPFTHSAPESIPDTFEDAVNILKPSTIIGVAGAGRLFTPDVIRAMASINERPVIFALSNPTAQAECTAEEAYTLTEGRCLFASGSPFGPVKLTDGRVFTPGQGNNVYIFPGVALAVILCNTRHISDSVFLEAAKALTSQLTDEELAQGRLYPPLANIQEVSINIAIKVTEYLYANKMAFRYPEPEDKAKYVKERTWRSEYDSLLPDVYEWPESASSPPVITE

ABCC1 = target: T6, ABCC1 (Homo sapiens, UniProt P33527)
T6 construct: to get the native cell lysate; host or cells: A375 cell lysate
T6 sequence (P33527 whole entry): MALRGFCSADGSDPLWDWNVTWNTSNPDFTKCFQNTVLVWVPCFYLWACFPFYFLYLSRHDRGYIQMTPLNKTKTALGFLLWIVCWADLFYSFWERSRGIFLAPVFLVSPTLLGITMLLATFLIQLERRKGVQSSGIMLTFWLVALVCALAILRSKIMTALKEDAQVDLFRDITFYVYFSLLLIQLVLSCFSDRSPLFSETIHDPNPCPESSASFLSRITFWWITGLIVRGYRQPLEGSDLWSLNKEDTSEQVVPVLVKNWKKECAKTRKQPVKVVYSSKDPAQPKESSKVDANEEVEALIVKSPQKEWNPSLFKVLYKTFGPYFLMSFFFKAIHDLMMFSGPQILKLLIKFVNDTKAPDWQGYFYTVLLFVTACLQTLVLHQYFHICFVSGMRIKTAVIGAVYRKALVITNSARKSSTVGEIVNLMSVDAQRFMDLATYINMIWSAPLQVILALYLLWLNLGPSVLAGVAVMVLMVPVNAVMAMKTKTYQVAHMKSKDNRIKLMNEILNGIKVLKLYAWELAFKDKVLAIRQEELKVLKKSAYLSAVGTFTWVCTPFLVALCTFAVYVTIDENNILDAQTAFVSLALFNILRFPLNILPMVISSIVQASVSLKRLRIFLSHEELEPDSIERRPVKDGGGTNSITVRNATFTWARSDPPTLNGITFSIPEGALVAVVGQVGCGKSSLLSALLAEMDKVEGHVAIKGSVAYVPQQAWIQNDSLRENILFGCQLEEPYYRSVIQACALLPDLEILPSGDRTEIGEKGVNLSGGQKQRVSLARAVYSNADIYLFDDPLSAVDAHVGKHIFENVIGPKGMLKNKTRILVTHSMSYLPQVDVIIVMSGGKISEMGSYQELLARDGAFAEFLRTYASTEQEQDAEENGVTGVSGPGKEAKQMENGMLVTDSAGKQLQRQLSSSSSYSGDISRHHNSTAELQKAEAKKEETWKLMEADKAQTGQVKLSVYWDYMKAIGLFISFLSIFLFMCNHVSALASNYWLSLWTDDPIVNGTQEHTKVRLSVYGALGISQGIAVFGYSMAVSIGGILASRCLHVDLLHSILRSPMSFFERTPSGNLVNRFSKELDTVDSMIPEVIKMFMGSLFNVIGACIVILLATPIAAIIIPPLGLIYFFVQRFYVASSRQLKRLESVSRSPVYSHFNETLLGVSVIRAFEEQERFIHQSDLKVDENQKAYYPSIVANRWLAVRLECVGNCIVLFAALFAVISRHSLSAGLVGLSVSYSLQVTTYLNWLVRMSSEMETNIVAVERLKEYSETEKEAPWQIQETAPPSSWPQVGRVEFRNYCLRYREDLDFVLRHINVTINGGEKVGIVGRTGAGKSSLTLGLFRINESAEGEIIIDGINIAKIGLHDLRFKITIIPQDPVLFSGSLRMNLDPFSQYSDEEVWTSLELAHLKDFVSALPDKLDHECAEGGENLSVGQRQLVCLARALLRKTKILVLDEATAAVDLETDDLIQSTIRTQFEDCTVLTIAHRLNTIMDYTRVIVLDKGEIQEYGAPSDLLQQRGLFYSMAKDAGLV

NMNAT3 = target: T7, NMNAT3 (Homo sapiens, UniProt Q96T66); settings: NMNAT3, SEQ ID NO: 135, ATP BS
T7 construct: to get the native cell lysate; endogenous in cells; host or cells: A375

SNRNP200 = target: T8, SNRNP200 (Homo sapiens, UniProt O75643); settings: SNRNP200, SEQ ID NO: 196, ATP BS
T8 construct: to get the native cell lysate; endogenous in cells; host or cells: A375 cell lysate

HSPA9 = target: T9, HSPA9 (Homo sapiens, UniProt P38646); settings: HSPA9, SEQ ID NO: 108, ATP BS
T9 construct: to get the native cell lysate; endogenous in cells; host or cells: A375

HSP90AA = target: T10, HSP90AA (Homo sapiens, UniProt P07900); settings: SEQ ID NO: 95, ATP BS
T10 construct: to get the native cell lysate; endogenous in cells; host or cells: A375

DDX28 = target: T11, DDX28 (Homo sapiens, UniProt Q9NUL7); settings: DDX28, SEQ ID NO: 68, ATP BS
T11 construct: endogenous in cells; host or cells: A375 cell lysate

XRCC3 = target: T12, XRCC3 (Homo sapiens, UniProt O43542); settings: XRCC3, SEQ ID NO: 230, ATP BS
T12 construct: to get the native cell lysate; endogenous in cells; host or cells: A375 cell lysate

HSP90AB1 = target: T13, HSP90AB1 (Homo sapiens, UniProt P08238); settings: HSP90AB1, SEQ ID NO: 97, ATP BS
T13 construct: to get the native cell lysate; endogenous in cells; host or cells: A375

NUDT1 = target: T14, NUDT1 (Homo sapiens, UniProt P36639)
T14 construct: to get the native cell lysate; endogenous in cells; host or cells: A375

CLPX = target: T15, CLPX (Homo sapiens, UniProt O76031); settings: SEQ ID NO: 59, ATP BS
T15 construct: endogenous in cells; host or cells: A375 cell lysate

YME1L1 = target: T16, YME1L1 (Homo sapiens, UniProt Q96TA2); settings: YME1L1, SEQ ID NO: 233, ATP BS
T16 construct: to get the native cell lysate; endogenous in cells; host or cells: A375 cell lysate

SPG7 = target: T17, SPG7 (Homo sapiens, UniProt Q9UQ90); settings: SPG7, SEQ ID NO: 197, ATP BS
T17 construct: to get the native cell lysate; endogenous in cells; host or cells: A375 cell lysate

PRPS1L1, PRPS2 = settings: PRPS1L1, PRPS2, SEQ ID NO: 172, ATP BS
ABCB6 = target: T18, ABCB6 (Homo sapiens, UniProt Q9NP58); settings: ABCB6, SEQ ID NO: 3, ATP BS
T18 construct: to get the native cell lysate; host or cells: A375 cell lysate

PPCS = target: T19, PPCS (Homo sapiens, UniProt Q9HAB8)
T19 construct: to get the native cell lysate; endogenous in cells; host or cells: A375 cell lysate
T19 sequence (Q9HAB8 whole entry): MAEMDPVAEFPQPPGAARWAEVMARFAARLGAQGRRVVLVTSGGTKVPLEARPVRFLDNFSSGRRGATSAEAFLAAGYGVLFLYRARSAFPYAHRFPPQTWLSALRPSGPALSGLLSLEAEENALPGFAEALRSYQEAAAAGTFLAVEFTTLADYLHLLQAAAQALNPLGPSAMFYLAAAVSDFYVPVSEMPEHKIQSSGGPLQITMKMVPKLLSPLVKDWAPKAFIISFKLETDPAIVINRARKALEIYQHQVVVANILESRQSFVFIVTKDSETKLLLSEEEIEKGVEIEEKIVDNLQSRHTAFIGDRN

MTHFD1L = target: T20, MTHFD1L (Homo sapiens, UniProt Q6UB35); settings: SEQ ID NO: 126, ATP BS
T20 construct: to get the native cell lysate; endogenous in cells; host or cells: A375

ABCC10 = target: T21, ABCC10 (Homo sapiens, UniProt Q5T3U5); settings: ABCC10, SEQ ID NO: 7, ATP BS
T21 construct: to get the native cell lysate; host or cells: A375 cell lysate

AK5 = target: T22, AK5 (Homo sapiens, UniProt Q9Y6K8); settings: AK5, SEQ ID NO: 36, ATP BS
T22 construct: to get the native cell lysate; host or cells: A375 cell lysate

HNRNPU = target: T23, HNRNPU (Homo sapiens, UniProt Q00839); settings: SEQ ID NO: 92, ATP BS
T23 construct: endogenous in cells; host or cells: A375

PSMC6 = target: T24, PSMC6 (Homo sapiens, UniProt P62333); settings: PSMC6, SEQ ID NO: 178, ATP BS
T24 construct: to get the native cell lysate; endogenous in cells; host or cells: A375 cell lysate

TRA1 = target: T25, TRA1 (Homo sapiens, UniProt P14625); settings: TRA1, SEQ ID NO: 208, ATP BS
T25 construct: to get the native cell lysate; endogenous in cells; host or cells: A375 cell lysate

SUCLA2 = target: T26, SUCLA2 (Homo sapiens, UniProt Q9P2R7)
T26 construct: to get the native cell lysate; endogenous in cells; host or cells: A375 cell lysate
T26 sequence (Q9P2R7 53-463): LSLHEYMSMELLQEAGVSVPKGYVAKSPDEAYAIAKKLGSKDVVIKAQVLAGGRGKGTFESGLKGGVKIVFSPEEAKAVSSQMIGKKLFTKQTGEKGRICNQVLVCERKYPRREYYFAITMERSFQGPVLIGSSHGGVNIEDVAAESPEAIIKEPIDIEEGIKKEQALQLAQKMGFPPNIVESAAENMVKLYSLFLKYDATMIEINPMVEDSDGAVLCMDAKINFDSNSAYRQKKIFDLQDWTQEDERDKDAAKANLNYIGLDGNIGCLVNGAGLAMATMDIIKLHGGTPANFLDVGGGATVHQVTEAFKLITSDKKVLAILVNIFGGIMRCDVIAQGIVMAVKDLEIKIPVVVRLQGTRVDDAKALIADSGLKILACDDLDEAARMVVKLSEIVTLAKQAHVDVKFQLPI
T26 sequence (P53597 41-346 partner): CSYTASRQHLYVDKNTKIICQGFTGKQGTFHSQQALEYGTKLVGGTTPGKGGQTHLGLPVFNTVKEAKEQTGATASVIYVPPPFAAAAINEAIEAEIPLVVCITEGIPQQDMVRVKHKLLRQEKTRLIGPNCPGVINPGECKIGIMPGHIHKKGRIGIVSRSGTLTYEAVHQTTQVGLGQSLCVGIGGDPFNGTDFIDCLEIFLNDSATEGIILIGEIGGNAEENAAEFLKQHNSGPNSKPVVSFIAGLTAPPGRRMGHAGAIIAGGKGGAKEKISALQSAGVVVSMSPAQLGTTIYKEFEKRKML

DCTPP1 = target: T27, DCTPP1 (Homo sapiens, UniProt Q9H773); settings: DCTPP1, SEQ ID NO: 65, ATP BS
T27 construct: endogenous in cells; host or cells: A375 cell lysate
T27 sequence (Q9H773 2-170 limits assumed): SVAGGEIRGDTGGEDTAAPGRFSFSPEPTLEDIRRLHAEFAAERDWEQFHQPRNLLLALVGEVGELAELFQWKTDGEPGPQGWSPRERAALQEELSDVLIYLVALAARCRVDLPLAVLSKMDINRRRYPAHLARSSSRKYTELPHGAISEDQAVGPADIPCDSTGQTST

TTLL12 = target: T28, TTLL12 (Homo sapiens, UniProt Q14166)
T28 construct: to get the native cell lysate; endogenous in cells; host or cells: A375 cell lysate
T28 sequence (Q14166 whole entry): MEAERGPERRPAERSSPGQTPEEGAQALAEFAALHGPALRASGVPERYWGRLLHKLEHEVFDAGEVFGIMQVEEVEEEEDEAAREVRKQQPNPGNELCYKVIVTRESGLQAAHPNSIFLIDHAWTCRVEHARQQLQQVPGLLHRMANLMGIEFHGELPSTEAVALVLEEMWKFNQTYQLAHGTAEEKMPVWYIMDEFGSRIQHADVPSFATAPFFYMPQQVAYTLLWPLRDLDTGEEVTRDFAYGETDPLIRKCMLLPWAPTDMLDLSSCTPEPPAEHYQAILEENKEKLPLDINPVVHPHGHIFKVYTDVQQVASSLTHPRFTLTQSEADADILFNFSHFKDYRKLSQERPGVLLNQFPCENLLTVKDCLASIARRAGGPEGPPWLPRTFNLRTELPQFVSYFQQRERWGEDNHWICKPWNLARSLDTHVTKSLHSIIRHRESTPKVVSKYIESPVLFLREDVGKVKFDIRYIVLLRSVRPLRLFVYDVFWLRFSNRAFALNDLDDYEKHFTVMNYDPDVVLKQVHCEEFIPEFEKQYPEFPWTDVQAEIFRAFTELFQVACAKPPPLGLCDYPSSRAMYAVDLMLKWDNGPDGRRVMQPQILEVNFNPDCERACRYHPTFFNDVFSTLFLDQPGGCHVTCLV

SMILES: Cn1c(=O)[nH]c2ccc(-c3cccc(C(=O)NC4CCn5ccnc5C4)c3)cc21 (centres unmarked) [Z36-MP5, 3-(3-methyl-2-oxo-2,3-dihydro-1H-benzo[d]imidazol-5-yl)-N-(5,6,7,8-tetrahydroimidazo[1,2-a]pyridin-7-yl)benzamide]
- Inhibition (%) by 1 μM Z36-MP5 (SMC1A): 5.67%
- Inhibition (%) by 1 μM Z36-MP5 (CLPB): −9.00%
- Inhibition (%) by 1 μM Z36-MP5 (HSPA1A; SEQ ID NO: 100, ATP BS): −9.44%
- Inhibition (%) by 1 μM Z36-MP5 (HSPA1A; SEQ ID NO: 101, ATP BS): −15.23%
- Inhibition (%) by 1 μM Z36-MP5 (TRMU; SEQ ID NO: 211, ATP BS): −13.98%
- Inhibition (%) by 1 μM Z36-MP5 (TRMU; SEQ ID NO: 212, ATP BS): −2.57%
- Inhibition (%) by 1 μM Z36-MP5 (ME2; ME2, SEQ ID NO: 122, ATP BS): −6.47%
- Inhibition (%) by 1 μM Z36-MP5 (ME2; ME2, SEQ ID NO: 123, ATP BS): −16.71%
- Inhibition (%) by 1 μM Z36-MP5 (ABCC1; ABCC1, SEQ ID NO: 5, ATP BS): −0.23%
- Inhibition (%) by 1 μM Z36-MP5 (ABCC1; ABCC1, SEQ ID NO: 6, ATP BS): −7.84%
- Inhibition (%) by 1 μM Z36-MP5 (NMNAT3): 9.62%
- Inhibition (%) by 1 μM Z36-MP5 (SNRNP200): −14.27%
- Inhibition (%) by 1 μM Z36-MP5 (HSPA9): −4.09%
- Inhibition (%) by 1 μM Z36-MP5 (HSP90AA): −1.29%
- Inhibition (%) by 1 μM Z36-MP5 (DDX28): −5.30%
- Inhibition (%) by 1 μM Z36-MP5 (XRCC3): −4.81%
- Inhibition (%) by 1 μM Z36-MP5 (HSP90AB1): −3.22%
- Inhibition (%) by 1 μM Z36-MP5 (NUDT1; NUDT1, SEQ ID NO: 142, ATP BS): 25.70%
- Inhibition (%) by 1 μM Z36-MP5 (NUDT1; NUDT1, SEQ ID NO: 143, ATP BS): 22.17%
- Inhibition (%) by 1 μM Z36-MP5 (NUDT1; NUDT1, SEQ ID NO: 144, ATP BS): 18.32%
- Inhibition (%) by 1 μM Z36-MP5 (CLPX): 0.44%
- Inhibition (%) by 1 μM Z36-MP5 (YME1L1): −10.37%
- Inhibition (%) by 1 μM Z36-MP5 (SPG7): 0.12%
- Inhibition (%) by 1 μM Z36-MP5 (PRPS1L1, PRPS2): −13.63%
- Inhibition (%) by 1 μM Z36-MP5 (ABCB6): 8.49%
- Inhibition (%) by 1 μM Z36-MP5 (PPCS; SEQ ID NO: 165, ATP BS): −7.44%
- Inhibition (%) by 1 μM Z36-MP5 (PPCS; SEQ ID NO: 166, ATP BS): −9.61%
- Inhibition (%) by 1 μM Z36-MP5 (MTHFD1L): 1.16%
- Inhibition (%) by 1 μM Z36-MP5 (ABCC10): −3.83%
- Inhibition (%) by 1 μM Z36-MP5 (AK5): 2.21%
- Inhibition (%) by 1 μM Z36-MP5 (HNRNPU): 6.85%
- Inhibition (%) by 1 μM Z36-MP5 (PSMC6): −0.83%
- Inhibition (%) by 1 μM Z36-MP5 (TRA1): −8.56%
- Inhibition (%) by 1 μM Z36-MP5 (SUCLA2; SUCLA2, SEQ ID NO: 198, ATP BS): −0.65%
- Inhibition (%) by 1 μM Z36-MP5 (SUCLA2; SUCLA2, SEQ ID NO: 199, ATP BS): 9.97%
- Inhibition (%) by 1 μM Z36-MP5 (DCTPP1): 12.74%
- Inhibition (%) by 1 μM Z36-MP5 (TTLL12; TTLL12, SEQ ID NO: 215, ATP BS): −5.29%
- Inhibition (%) by 1 μM Z36-MP5 (TTLL12; TTLL12, SEQ ID NO: 216, ATP BS): −17.65%
